From the supplement of paper PMC10307832

Assays:
[1] = compound: CC1=NN=C(O1)C2=NN=C(C=C2)N3CCC(CC3)OC4=C(C=CC(=C4)F)Cl; experiment: relative viability (nuclei count vs DMSO), 5 days (fraction); higher = more cells survive
How it was run: (§1)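 MetaXpress counted nuclei in 4× images of lung cancer cell lines that had been fixed, permeabilised and Hoechst-stained in one step. Before that, cells in 1536-well plates were kept overnight at 37 °C, pinned with five √10-spaced library-drug doses on vehicle-anchored plates, and cultured 5 days without medium change. Viability takes treated-well nuclei over vehicle-well nuclei and uses the median across plates. Plates were accepted only at control CV below 25% and at least one doubling.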

[2] = compound: CC(C)C[C@@H](C(=O)N[C@H](C(=O)OC1CCCC1)c1ccccc1)[C@H](O)C(=O)NO [Tosedostat]; experiment: as above
How it was run: as §1

| Cell Line | relative viability ([1]; 0.253 µM) | relative viability ([1]; 0.8 µM) | relative viability ([1]; 2.53 µM) | relative viability ([1]; 8 µM) | relative viability ([2]; 0.02 µM) | relative viability ([2]; 0.06325 µM) | relative viability ([2]; 0.2 µM) | relative viability ([2]; 0.6325 µM) | relative viability ([2]; 2 µM) |
| --- | --- | --- | --- | --- | --- | --- | --- | --- | --- |
| 201T | 0.481 | 0.523 | 0.553 | 0.503 | 1 | 1 | 1.02 | 1.06 | 1.01 |
| A549 | 0.69 | 0.611 | 0.575 | 0.541 | 1.05 | 0.945 | 0.922 | 0.929 | 0.815 |
| A-427 | 0.904 |  | 0.956 | 0.789 | 1.04 | 0.955 | 0.992 | 0.941 | 0.908 |
| ABC-1 | 0.374 | 0.421 | 0.473 | 0.472 | 1.24 | 0.869 | 0.911 | 0.928 | 0.765 |
| BEN | 0.895 | 0.959 | 0.974 | 0.821 | 1.01 | 1.03 | 1.09 | 1.3 | 1.2 |
| CAL-12T | 0.935 | 0.859 | 0.821 | 0.742 | 1.16 | 0.948 | 1.03 | 0.892 | 0.784 |
| COR-L23 | 0.826 | 0.891 | 0.797 | 0.655 | 1.13 | 1 | 0.965 | 1.01 | 1.06 |
| COR-L 105 | 0.902 | 0.956 | 0.989 | 1.07 | 1.03 | 0.906 | 0.81 | 0.784 | 0.697 |
| Calu-6 | 0.673 | 0.682 | 0.694 | 0.61 | 1.08 | 0.925 | 0.928 | 0.831 | 0.733 |
| ChaGo-K-1 | 0.736 | 0.681 | 0.687 | 0.671 | 1.07 | 0.975 | 0.969 | 1.02 | 0.771 |
| EBC-1 | 0.663 | 0.735 | 0.81 | 0.606 | 0.994 | 0.934 | 0.946 | 0.785 | 0.683 |
| EKVX | 0.475 | 0.405 | 0.432 | 0.479 | 0.973 | 0.972 | 0.944 | 0.859 | 0.911 |
| EMC-BAC-2 | 0.98 | 0.872 | 0.891 | 0.615 | 1.09 | 1.16 | 0.952 | 0.919 | 0.811 |
| EPLC-272H | 0.987 | 0.716 | 0.887 | 0.828 | 1.06 | 0.984 | 0.763 | 0.593 | 0.428 |
| H3255 | 0.662 | 0.688 | 0.635 | 0.727 | 0.994 | 0.869 | 0.94 | 0.852 | 0.886 |
| HARA | 0.484 | 0.387 | 0.538 | 0.355 | 1.15 | 0.977 | 0.922 | 0.887 | 0.774 |
| HCC-15 | 0.463 | 0.449 | 0.456 | 0.464 | 1.05 | 0.89 | 0.996 | 0.901 | 0.848 |
| HCC-44 | 0.492 | 0.542 | 0.509 | 0.517 | 1.09 | 1.01 | 0.982 | 0.905 | 0.628 |
| HCC-78 | 0.659 | 0.615 | 0.578 | 0.551 | 0.938 | 1.04 | 1 | 1.04 | 0.958 |

| Cell Line | relative viability ([1]; 0.253 µM) | relative viability ([1]; 0.8 µM) | relative viability ([1]; 2.53 µM) | relative viability ([1]; 8 µM) | relative viability ([2]; 0.02 µM) | relative viability ([2]; 0.06325 µM) | relative viability ([2]; 0.2 µM) | relative viability ([2]; 0.6325 µM) | relative viability ([2]; 2 µM) |
| --- | --- | --- | --- | --- | --- | --- | --- | --- | --- |
| HCC-366 | 0.484 | 0.469 | 0.508 | 0.482 | 1.02 | 1.01 | 1.03 | 0.979 | 1.01 |
| HCC-827 | 0.47 | 0.297 | 0.455 | 0.443 | 1.03 | 1.06 | 1.1 | 0.957 | 1.01 |
| HOP-62 | 0.77 | 0.529 | 0.707 | 0.587 | 1.12 | 0.977 | 0.932 | 0.945 | 0.9 |
| IA-LM | 0.169 | 0.142 | 0.171 | 0.155 | 1.07 | 0.963 | 0.918 | 0.858 | 0.769 |
| LC-2-ad | 0.407 | 0.431 | 0.44 | 0.409 | 1.13 | 1.02 | 0.963 | 0.871 | 0.818 |
| LCLC-97TM1 | 0.795 |  | 0.564 | 0.548 | 1.12 | 0.973 | 0.876 | 0.83 | 0.621 |
| LCLC-103H | 0.604 | 0.71 | 0.705 | 0.632 | 1.06 | 0.95 | 1 | 1.11 | 1.07 |
| LK-2 | 0.965 | 0.823 | 1.01 | 1.02 | 1.13 | 1.11 | 0.926 | 0.954 | 1.13 |
| LOU-NH91 |  | 0.866 | 0.908 | 0.957 | 1.04 | 1.01 | 0.937 | 0.919 | 0.86 |
| LU99A | 1.05 | 0.783 | 0.721 | 0.758 | 1.04 | 1.11 | 0.99 | 0.857 | 0.813 |
| LXF-289 | 0.712 | 0.616 | 0.737 | 0.653 | 1.08 | 0.987 | 0.992 | 0.993 | 1.05 |
| NCI-H23 | 0.919 | 0.532 | 0.835 | 0.815 | 1.14 | 0.907 | 0.899 | 0.744 | 0.541 |
| NCI-H322M | 0.929 | 0.881 | 1.02 | 0.819 | 0.898 | 0.964 | 0.877 | 0.762 | 0.834 |
| NCI-H358 | 0.628 | 0.563 | 0.589 | 0.49 | 1.11 | 0.866 | 0.782 | 0.452 | 0.425 |
| NCI-H441 | 0.672 | 0.388 | 0.595 | 0.519 | 1.12 | 0.92 | 0.749 | 0.69 | 0.731 |
| NCI-H460 | 0.273 | 0.306 | 0.282 | 0.284 | 1.02 | 0.994 | 0.99 | 0.974 | 0.989 |
| NCI-H520 | 0.91 | 0.813 | 1.16 | 0.968 | 1.02 | 0.977 | 0.937 | 1.15 | 1.14 |
| NCI-H522 | 0.964 | 0.933 | 0.957 | 0.955 | 0.908 | 1.01 | 0.897 | 1.05 | 1.01 |
| NCI-H596 | 0.982 | 0.806 | 1.06 | 0.813 | 1.03 | 1.08 | 1.12 | 1.01 | 0.967 |
